Assay results: patent US20190284136A1, “INDOLINE DERIVATIVES” (ViiV HEALTHCARE UK LIMITED, priority 2016, published 2019)
pIC50: −log10 of the molar value.

System: HIV
Assay: Table 1 IC50 of the examples (assay method not given; patent concerns inhibiting HIV replication)
Format: cell-based
Conditions: Human immunodeficiency virus 1

## COc1cc(OC)cc(C(=O)N2CCc3c2cc(C)c([C@H](OC(C)(C)C)C(=O)O)c3-c2cc(F)c3c(c2C)CCCO3)c1 (atropisomer, axis not shown) [Example 63, (S)-2-(tert-Butoxy)-2-((R)-1-(3,5-dimethoxybenzoyl)-4-(8-fluoro-5-methylchroman-6-yl)-6-methylindolin-5-yl)acetic acid]
  pIC50: 8.40

## Cc1cc2c(c(-c3cc(F)c4c(c3C)CCCO4)c1[C@H](OC(C)(C)C)C(=O)O)CCN2C(=O)c1ccc(F)cc1C(F)(F)F (atropisomer, axis not shown) [Example 64, (S)-2-(tert-Butoxy)-2-((R)-1-(4-fluoro-2-(trifluoromethyl)benzoyl)-4-(8-fluoro-5-methylchroman-6-yl)-6-methylindolin-5-yl)acetic acid]
  pIC50: 8.30

## Cc1cc2c(c(-c3cc(F)c4c(c3C)CCCO4)c1[C@H](OC(C)(C)C)C(=O)O)CCN2C(=O)C1CCOCC1 (atropisomer, axis not shown) [Example 65, (S)-2-(tert-Butoxy)-2-((R)-4-(8-fluoro-5-methylchroman-6-yl)-6-methyl-1-(tetrahydro-2H-pyran-4-carbonyl)indolin-5-yl)acetic acid]
  pIC50: 6.42

## Cc1cc2c(c(-c3cc(F)c4c(c3C)CCCO4)c1[C@H](OC(C)(C)C)C(=O)O)CCN2C(=O)c1cccc(Cl)c1C (atropisomer, axis not shown) [Example 66, (S)-2-(tert-Butoxy)-2-((R)-1-(3-chloro-2-methylbenzoyl)-4-(8-fluoro-5-methylchroman-6-yl)-6-methylindolin-5-yl)acetic acid]
  pIC50: 8.22

## COc1cccc(C(=O)N2CCc3c2cc(C)c([C@H](OC(C)(C)C)C(=O)O)c3-c2cc(F)c3c(c2C)CCCO3)c1C (atropisomer, axis not shown) [Example 67, (S)-2-(tert-Butoxy)-2-((R)-4-(8-fluoro-5-methylchroman-6-yl)-1-(3-methoxy-2-methylbenzoyl)-6-methylindolin-5-yl)acetic acid]
  pIC50: 8.30

## Cc1cc2c(c(-c3cc(F)c4c(c3C)CCCO4)c1[C@H](OC(C)(C)C)C(=O)O)CCN2C(=O)c1cc(Cl)ccc1Cl (atropisomer, axis not shown) [Example 68, (S)-2-(tert-Butoxy)-2-((R)-1-(2,5-dichlorobenzoyl)-4-(8-fluoro-5-methylchroman-6-yl)-6-methylindolin-5-yl)acetic acid]
  pIC50: 7.89

## Cc1ccc(C)c(C(=O)N2CCc3c2cc(C)c([C@H](OC(C)(C)C)C(=O)O)c3-c2cc(F)c3c(c2C)CCCO3)c1 (atropisomer, axis not shown) [Example 69, (S)-2-(tert-Butoxy)-2-((R)-1-(2,5-dimethylbenzoyl)-4-(8-fluoro-5-methylchroman-6-yl)-6-methylindolin-5-yl)acetic acid]
  pIC50: 8.30

## Cc1cc2c(c(-c3cc(F)c4c(c3C)CCCO4)c1[C@H](OC(C)(C)C)C(=O)O)CCN2C(=O)c1ccc(Cl)cc1Cl (atropisomer, axis not shown) [Example 70, (S)-2-(tert-Butoxy)-2-((R)-1-(2,4-dichlorobenzoyl)-4-(8-fluoro-5-methylchroman-6-yl)-6-methylindolin-5-yl)acetic acid]
  pIC50: 8.30

## COc1cc(Cl)ccc1C(=O)N1CCc2c1cc(C)c([C@H](OC(C)(C)C)C(=O)O)c2-c1cc(F)c2c(c1C)CCCO2 (atropisomer, axis not shown) [Example 72, (S)-2-(tert-Butoxy)-2-((R)-1-(4-chloro-2-methoxybenzoyl)-4-(8-fluoro-5-methylchroman-6-yl)-6-methylindolin-5-yl)acetic acid]
  pIC50: 8.15

## Cc1ccc(C(=O)N2CCc3c2cc(C)c([C@H](OC(C)(C)C)C(=O)O)c3-c2cc(F)c3c(c2C)CCCO3)cc1F (atropisomer, axis not shown) [Example 73, (S)-2-(tert-Butoxy)-2-((R)-1-(3-fluoro-4-methylbenzoyl)-4-(8-fluoro-5-methylchroman-6-yl)-6-methylindolin-5-yl)acetic acid]
  pIC50: 8.22

## COc1ccc(C(=O)N2CCc3c2cc(C)c([C@H](OC(C)(C)C)C(=O)O)c3-c2cc(F)c3c(c2C)CCCO3)cc1F (atropisomer, axis not shown) [Example 74, (S)-2-(tert-butoxy)-2-((R)-1-(3-fluoro-4-methoxybenzoyl)-4-(8-fluoro-5-methylchroman-6-yl)-6-methylindolin-5-yl)acetic acid]
  pIC50: 8.30

## COc1c(Cl)cccc1C(=O)N1CCc2c1cc(C)c([C@H](OC(C)(C)C)C(=O)O)c2-c1cc(F)c2c(c1C)CCCO2 (atropisomer, axis not shown) [Example 75, (S)-2-(tert-Butoxy)-2-((R)-1-(3-chloro-2-methoxybenzoyl)-4-(8-fluoro-5-methylchroman-6-yl)-6-methylindolin-5-yl)acetic acid]
  pIC50: 8.18

## Cc1cc2c(c(-c3cc(F)c4c(c3C)CCCO4)c1[C@H](OC(C)(C)C)C(=O)O)CCN2C(=O)c1cncc(F)c1 (atropisomer, axis not shown) [Example 76, (S)-2-(tert-Butoxy)-2-((R)-4-(8-fluoro-5-methylchroman-6-yl)-1-(5-fluoronicotinoyl)-6-methylindolin-5-yl)acetic acid]
  pIC50: 7.82

## Cc1cc(C)cc(C(=O)N2CCc3c2cc(C)c([C@H](OC(C)(C)C)C(=O)O)c3-c2cc(F)c3c(c2C)CCCO3)c1 (atropisomer, axis not shown) [Example 77, (S)-2-(tert-Butoxy)-2-((R)-1-(3,5-dimethylbenzoyl)-4-(8-fluoro-5-methylchroman-6-yl)-6-methylindolin-5-yl)acetic acid]
  pIC50: 8.30

## CC(=O)Nc1cccc(C(=O)N2CCc3c2cc(C)c([C@H](OC(C)(C)C)C(=O)O)c3-c2cc(F)c3c(c2C)CCCO3)c1 (atropisomer, axis not shown) [Example 78, (S)-2-((R)-1-(3-Acetamidobenzoyl)-4-(8-fluoro-5-methylchroman-6-yl)-6-methylindolin-5-yl)-2-(tert-butoxy)acetic acid]
  pIC50: 6.51

## COc1cccc(OC)c1C(=O)N1CCc2c1cc(C)c([C@H](OC(C)(C)C)C(=O)O)c2-c1cc(F)c2c(c1C)CCCO2 (atropisomer, axis not shown) [Example 79, (S)-2-(tert-Butoxy)-2-((R)-1-(2,6-dimethoxybenzoyl)-4-(8-fluoro-5-methylchroman-6-yl)-6-methylindolin-5-yl)acetic acid]
  pIC50: 7.26

## Cc1ccc(F)cc1C(=O)N1CCc2c1cc(C)c([C@H](OC(C)(C)C)C(=O)O)c2-c1cc(F)c2c(c1C)CCCO2 (atropisomer, axis not shown) [Example 80, (S)-2-(tert-Butoxy)-2-((R)-1-(5-fluoro-2-methylbenzoyl)-4-(8-fluoro-5-methylchroman-6-yl)-6-methylindolin-5-yl)acetic acid]
  pIC50: 8.40

## Cc1cncc(C(=O)N2CCc3c2cc(C)c([C@H](OC(C)(C)C)C(=O)O)c3-c2cc(F)c3c(c2C)CCCO3)c1 (atropisomer, axis not shown) [Example 81, (S)-2-(tert-Butoxy)-2-((R)-4-(8-fluoro-5-methylchroman-6-yl)-6-methyl-1-(5-methylnicotinoyl)indolin-5-yl)acetic acid]
  pIC50: 7.85

## Cc1cc2c(c(-c3cc(F)c4c(c3C)CCCO4)c1[C@H](OC(C)(C)C)C(=O)O)CCN2C(=O)c1cc(Cl)cc(Cl)c1 (atropisomer, axis not shown) [Example 82, (S)-2-(tert-Butoxy)-2-((R)-1-(3,5-dichlorobenzoyl)-4-(8-fluoro-5-methylchroman-6-yl)-6-methylindolin-5-yl)acetic acid]
  pIC50: 7.92

## Cc1cc2c(c(-c3cc(F)c4c(c3C)CCCO4)c1[C@H](OC(C)(C)C)C(=O)O)CCN2C(=O)c1cccc2c1OCCO2 (atropisomer, axis not shown) [Example 83, (S)-2-(tert-Butoxy)-2-((R)-1-(2,3-dihydrobenzo[b][1,4]dioxine-5-carbonyl)-4-(8-fluoro-5-methylchroman-6-yl)-6-methylindolin-5-yl)acetic acid]
  pIC50: 8.15

## COc1cccc(C(=O)N2CCc3c2cc(C)c([C@H](OC(C)(C)C)C(=O)O)c3-c2cc(F)c3c(c2C)CCCO3)c1OC (atropisomer, axis not shown) [Example 84, (S)-2-(tert-Butoxy)-2-((R)-1-(2,3-dimethoxybenzoyl)-4-(8-fluoro-5-methylchroman-6-yl)-6-methylindolin-5-yl)acetic acid]
  pIC50: 7.39

## COc1ccc(C(=O)N2CCc3c2cc(C)c([C@H](OC(C)(C)C)C(=O)O)c3-c2cc(F)c3c(c2C)CCCO3)c(F)c1 (atropisomer, axis not shown) [Example 85, (S)-2-(tert-Butoxy)-2-((R)-1-(2-fluoro-4-methoxybenzoyl)-4-(8-fluoro-5-methylchroman-6-yl)-6-methylindolin-5-yl)acetic acid]
  pIC50: 8.22

## COc1ccc(C(=O)N2CCc3c2cc(C)c([C@H](OC(C)(C)C)C(=O)O)c3-c2cc(F)c3c(c2C)CCCO3)cc1OC (atropisomer, axis not shown) [Example 86, (S)-2-(tert-Butoxy)-2-((R)-1-(3,4-dimethoxybenzoyl)-4-(8-fluoro-5-methylchroman-6-yl)-6-methylindolin-5-yl)acetic acid]
  pIC50: 8.30

## COc1c(C)cccc1C(=O)N1CCc2c1cc(C)c([C@H](OC(C)(C)C)C(=O)O)c2-c1cc(F)c2c(c1C)CCCO2 (atropisomer, axis not shown) [Example 87, (S)-2-(tert-Butoxy)-2-((R)-4-(8-fluoro-5-methylchroman-6-yl)-1-(2-methoxy-3-methylbenzoyl)-6-methylindolin-5-yl)acetic acid]
  pIC50: 8.30

## COc1ccc(C(=O)N2CCc3c2cc(C)c([C@H](OC(C)(C)C)C(=O)O)c3-c2cc(F)c3c(c2C)CCCO3)c(OC)c1 (atropisomer, axis not shown) [Example 88, (S)-2-(tert-Butoxy)-2-((R)-1-(2,4-dimethoxybenzoyl)-4-(8-fluoro-5-methylchroman-6-yl)-6-methylindolin-5-yl)acetic acid]
  pIC50: 8.30

## COc1cc(C)cc(C(=O)N2CCc3c2cc(C)c([C@H](OC(C)(C)C)C(=O)O)c3-c2cc(F)c3c(c2C)CCCO3)c1 (atropisomer, axis not shown) [Example 89, (S)-2-(tert-Butoxy)-2-((R)-4-(8-fluoro-5-methylchroman-6-yl)-1-(3-methoxy-5-methylbenzoyl)-6-methylindolin-5-yl)acetic acid]
  pIC50: 8.52
